The text below walks through data of the SangsterLogP compilation.

A word on the logP: it is a log measure of how a compound divides between an organic and an aqueous phase.

For the compound `CCCCCCCCCc1cccc(O)c1O`, the logP amounted to 4.86.

For the compound `CCCCCCCCCCCCCc1cccc(O)c1`, the logP came out at 8.84.

The compound `CCCCCCCCCCCc1ccccc1O` came in with a logP of 7.17.

As for `CCCCCCCCCCCCCc1ccc(O)cc1O`, the logP came to 6.84.

`CCCCCCCCCCCc1cccc(O)c1` returned a logP of 6.98. The logP values of the last two compounds are within 0.2 log units of each other.

`CCCCCCCCCCCCCCCc1cccc(O)c1O`: the logP is 9.27.

Regarding `CCCCCCCCCCCCCc1cccc(O)c1O`, the log partition coefficient (logP) came to 7.75.

Compound `CCCCCCCCCCCCCCCc1ccc(O)cc1O` had a lipophilicity (logP) of 8.29.

With `CCCCCCCCCc1cccc(O)c1`, the logP worked out at 5.61.

As to `CCCCCc1cccc(O)c1`, the log partition coefficient (logP) was found to be 3.13.

Compound `CCCCCCCc1cccc(O)c1O` registered a logP of 3.59.

`CCCCCCCCCCCc1ccc(O)cc1O` displayed a logP of 5.43.

For the compound `CCCCCCCCCCCc1ccc(O)c(O)c1`, the logP was 6.94.

The compound `CCCCCCCCCCCCCc1ccc(O)cc1` registered a logP of 8.2.

Compound `CCCCCCCCCc1ccc(O)c(O)c1` came in with a lipophilicity (logP) of 5.54.

`CCCCCCCCCCCCCCCc1cccc(O)c1` displayed a logP of 10.1.

As for `CCCCCc1ccc(O)c(O)c1`, the lipophilicity (logP) was determined as 3.13.

Turning to `CCCCCCCCCc1ccc(O)cc1`, the log partition coefficient (logP) was 5.76.

`CCCCCCCc1ccccc1O`: the logP came to 4.45.

Compound `CCCCCCCCCCCCc1ccc(O)cc1` registered a logP of 7.91.

On to `CCCCCCCCCc1ccccc1O`, for which the logP turned out to be 5.76.

Consider `CCCCCCCc1ccc(O)cc1`, for which the logP is 4.15.

As for `CCCCCCCCCCCc1ccc(O)cc1`, the logP stood at 7.18.

As to `CCCCCCCc1ccc(O)cc1O`, the logP turned out to be 2.9.

`CCCCCCCCCCCCCCCc1ccccc1O` came in with a lipophilicity (logP) of 10.1.

For the compound `CCCCCCCCCCCCCCCc1ccc(O)c(O)c1`, the logP turned out to be 9.9.

As to `CCCCCCCCCCCc1cccc(O)c1O`, the lipophilicity (logP) turned out to be 6.3.

Take `CCCCCCCCCCCCCc1ccccc1O`: the log partition coefficient (logP) came to 8.61.

Compound `CCCCCCCCCc1ccc(O)cc1O` gave a log partition coefficient (logP) of 4.1.

Regarding `CCCCCCCCCCCCCc1ccc(O)c(O)c1`, the logP is 8.42.
